{
  "source": "patent US6635475B1",
  "about": "“Bacillus subtilis extracytoplasmic function σ factor” (Cornell Research Foundation, Inc., priority 1999, dated 2003)",
  "note": "Where a SMILES comes first, the peptide text is derived from it. Bridges are numbered along the chain shown (N, C = ends). [ ]: non-standard residue; d: D form. The star is where a group is joined. Ileψ(thiazoline)Cys = CC[C@H](C)[C@H](N)C1=N[C@H](C(=O)*)CS1; dOrn = NCCC[C@@H](N)C(=O)O",
  "data": [
    {"test_system": "sigW mutant", "experiment": "sigW mutant tested for increased sensitivity to chemical insults (zones of inhibition)", "assay_type": "cell-based, Bacillus subtilis", "settings": "sigW mutant strain tested for increased sensitivity to a variety of chemical insults", "from_the_text": "Identification of members of the σ^W regulon allows prediction of the phenotypes likely to be associated with a sigW mutation. A sigW mutant strain is not grossly defective in any of the well-characterized processes associated with post-exponential phase, including sporulation, competence, and protein secretion. It has been previously reported that sigW transcription is not induced by a temperature shift from 37 to 50 degrees C. (Huang et al., 1998) and the same is true for the four tested members of the σ^W regulon (ydbS, yeaA, yxjI, ysdB). Since several members of the σ^W regulon encode enzymes with a predicted detoxification function (FIG. 3), a sigW mutant was tested for increased sensitivity to a variety of chemical insults.", "values": [
      {"compound": "[Fe+3]", "note": "[Fe^3+]", "differences in the zones of inhibition": "no differences"},
      {"compound": "[Mn+2]", "note": "[Mn^2+]", "differences in the zones of inhibition": "no differences"},
      {"compound": "[Cl-].[Na+]", "note": "[NaCl]", "differences in the zones of inhibition": "no differences"},
      {"compound": "C[n+]1ccc(-c2cc[n+](C)cc2)cc1", "note": "[methyl viologen]", "differences in the zones of inhibition": "no differences"},
      {"compound": "neomycin", "differences in the zones of inhibition": "no differences"},
      {"compound": "Cl", "note": "[HCI]", "differences in the zones of inhibition": "no differences"},
      {"compound": "O=C(N[C@H](CO)[C@H](O)c1ccc([N+](=O)[O-])cc1)C(Cl)Cl", "note": "[chloramphenicol]", "differences in the zones of inhibition": "no differences"},
      {"compound": "lysozyme", "differences in the zones of inhibition": "no differences"},
      {"compound": "gentamicin sulfate", "differences in the zones of inhibition": "no differences"},
      {"compound": "CC[C@H](C)[C@H](N)C1=N[C@H](C(=O)N[C@@H](CC(C)C)C(=O)N[C@H](CCC(=O)O)C(=O)N[C@H](C(=O)N[C@H]2CCCCNC(=O)[C@H](CC(N)=O)NC(=O)[C@@H](CC(=O)O)NC(=O)[C@H](Cc3cnc[nH]3)NC(=O)[C@@H](Cc3ccccc3)NC(=O)[C@H]([C@@H](C)CC)NC(=O)[C@@H](CCCN)NC2=O)[C@@H](C)CC)CS1", "note": "[bacitracin] ({Ileψ(thiazoline)Cys}-L[dE]IK[dOrn]I[dF]H[dD]N; lactam 4-C)", "differences in the zones of inhibition": "no differences"},
      {"compound": "polymyxins", "differences in the zones of inhibition": "no differences"},
      {"compound": "OO", "note": "[hydrogen peroxide]", "differences in the zones of inhibition": "no differences"},
      {"compound": "CCCCCCCCCCCCOS(=O)(=O)[O-].[Na+]", "note": "[sodium dodecyl sulfate]", "differences in the zones of inhibition": "no differences"},
      {"compound": "nisin", "differences in the zones of inhibition": "no differences"},
      {"compound": "CN[C@@H]1[C@H](O)[C@H](NC)[C@H]2O[C@@]3(O)C(=O)C[C@@H](C)O[C@H]3O[C@@H]2[C@H]1O", "note": "[spectinomycin]", "differences in the zones of inhibition": "no differences"},
      {"compound": "OCCS", "note": "[2-mercaptoethanol]", "differences in the zones of inhibition": "no differences"},
      {"compound": "CC1(C)S[C@@H]2[C@H](NC(=O)[C@H](N)c3ccccc3)C(=O)N2[C@H]1C(=O)O", "note": "[ampicillin]", "differences in the zones of inhibition": "no differences"},
      {"compound": "O=C(O)CN(CCN(CC(=O)O)CC(=O)O)CC(=O)O", "note": "[EDTA]", "differences in the zones of inhibition": "no differences"},
      {"compound": "[Na+].[OH-]", "note": "[NAOH]", "differences in the zones of inhibition": "no differences"},
      {"compound": "O[C@H](CS)[C@H](O)CS", "note": "(racemic) [dithiothreitol]", "differences in the zones of inhibition": "no differences"}
    ]}
  ]
}
